How the values were obtained:
[1] = molecular target: T1, interaction between Hsp90 and the Hop's TPR2A domain (Homo sapiens, UniProt P07900); experiment: BIACORE competition: Hsp90 pre-mixed with peptide, added to immobilized TPR2A; type: binding; details: for Binding of Hsp90 (%): to immobilized TPR2A
T1 construct: histidine tag; made in house; host or cells: Hsp90: E. coli BL21 (pDEST17-Hsp90)
Description: It was examined whether the TPR peptide designed could compete specifically with the interaction between Hsp90, which is essential for the accurate folding of some carcinogenic protein including survivin in cancer cells, and the Hop's TPR2A domain.

Caki-1 [2] = type: cell-based, human; details: Kidney cancer Caki-1; read-out: Anti-tumor activity, IC50 (μM) ± SD
HEK293 = experiment: cells; type: cell-based, human; details: Normal cell HEK; read-out: Anti-tumor activity, IC50 (μM) ± SD
Procedure: (§1) A total of 3×10^3 cells were inoculated per well on a 96 well plate and cultured in a medium containing 10% FBS for 24 hours, and incubated with 100 μl of a peptide having a gradual increase in concentration at 37° C. for 48 to 72 hours. The survival rate of the cells was measured by using WST-8 solution (Cell Count Reagent SF; Nacalai Tesque, Inc.).
(§2) A total of 3×10^3 cells per well were inoculated onto a 96 well plate, and incubated in a medium containing 10% FBS with 100 μl of a peptide diluted stepwise at 37° C. for 48 to 72 hours. The survival rate of the cells was measured by using WST-8 solution (Cell Count Reagent SF; Nacalai Tesque, Inc.).

Caki-1 [3] = type: cell-based, human; details: Caki-1, 68 μM
Procedure: The TPR peptide or the TPR scramble peptide was mixed with a commercially available transfection reagent (Profect-P2 or, Lipofectamine LTX) and the mixture was left to incubate at room temperature for 20 minutes, to form liposome before the complex was added to cancer cells (Caki-1 (kidney cancer cells)); the survival rate of the cells was then measured by using WST-8 solution (Cell Count Reagent SF; Nacalai Tesque, Inc.) and the results were compared with those such as in the case of the TPR scramble peptide or the liposome alone.

LNCap = type: cell-based, human; details: Prostate cancer LNcap; read-out: Anti-tumor activity, IC50 (μM) ± SD
U937 [4] = experiment: Penetration experiment, confocal microscope, U937; type: cell-based, human; details: U937, TAMRA-labeled peptide 10 μM, 1 hour
Procedure: TPR-TAMRA (TAMRA labeled body) or Antp-TPR-TAMRA (TAMRA labeled body) was added to 1×10^6 peripheral blood mononuclear cells (PBMCs), which were prepared from U937 cells, a mouse leukemia cell strain EL4 or mouse peripheral blood, at a final concentration of 10 μM, and the mixture was cultured for 1 hour. The peptide incorporated in the cell or influx of the medium into the cell after peptide penetration was observed under a confocal microscope (Olympus FV1000 (Olympus)), using a medium containing calcein.
TPR-TAMRA (TAMRA labeled body) or Antp-TPR-TAMRA (TAMRA labeled body) was added to 1×10^6 U937 cells to a final concentration of 10 μM; the mixture was cultured for one hour; and then the behavior of the peptide incorporated into the cell or the influx of the medium into the cell after peptide penetration was observed under a confocal microscope (Olympus FV1000 (Olympus)), using a calcein-containing medium.

T47D = type: cell-based, human; details: Breast cancer T47D; read-out: Anti-tumor activity, IC50 (μM) ± SD
Procedure: as §1

MRC-5 = type: cell-based, human; details: Normal cell MRC5; read-out: Anti-tumor activity, IC50 (μM) ± SD
Procedure: as §1

U937 [5] = experiment: cells; type: cell-based, human
Procedure: as §2

BXPC-3 = type: cell-based, human; details: Pancreatic cancer Bxpc3; read-out: Anti-tumor activity, IC50 (μM) ± SD

CC[C@H](C)[C@H](NC(=O)[C@H](CCCNC(=N)N)NC(=O)[C@H](C)NC(=O)[C@H](Cc1ccc(O)cc1)NC(=O)[C@H](C)NC(=O)[C@@H](N)CCCCN)C(=O)NCC(=O)N[C@@H](CC(N)=O)C(=O)N[C@@H](CO)C(=O)N[C@@H](Cc1ccc(O)cc1)C(=O)N[C@@H](Cc1ccccc1)C(=O)N[C@@H](CCCCN)C(=O)O [TPR]
inhibition of the interaction between Hsp90 and TPR2A ([1]; increasing peptide concentration): exerts an influence on the interaction between Hsp90 and TPR2A | Binding of Hsp90 (%) ([1]; peptide 1.411 μM): 88.19% | Binding of Hsp90 (%) ([1]; peptide 14.11 μM): 84.60% | Binding of Hsp90 (%) ([1]; peptide 141.1 μM): 72.26% | Binding of Hsp90 (%) ([1]; peptide 282.2 μM): 29.75% | Binding of Hsp90 (%) ([1]; peptide 705.5 μM): 0% | IC50 (Caki-1 [2]): > 352 µM | IC50 (HEK293): > 352 µM | killing effect after introduction with transfection reagent (Caki-1 [3]): observed when the TPR peptide was introduced | IC50 (LNCap): > 352 µM | intracellular penetration (U937 [4]): did not penetrate into the cell | IC50 (T47D): > 352 µM | IC50 (MRC-5): > 352 µM | Cell Survival Rate (%) (U937 [5]): 92.79% | Anti-cancer activity (% relative to wild-type peptide) (U937 [5]; U937, wild-type peptide = 100%): 9.39% | Decrease in cell survival rate (% relative to wild-type peptide) (U937 [5]; U937, wild-type peptide = 100%): 25.04% | IC50 (BXPC-3): > 352 µM
